The values that follow are results of earlier work, collected in patent publication US6645524B2, “Oral pharmaceutical dosage forms for pulsatile delivery of an antiarrhythmic agent” (Pierce Management LLC, priority 2000, dated 2003).

Like-named read-outs stand apart in the source and are kept apart here.

Data set [1] has as its system patients with symptomatic primary paroxymal atrial fibrillation/atrial flutter. The following applies: for median time to recurrence of symptomatic ECG-documented atrial fibrillation/atrial flutter: twice a day.
The test system of data set [2] is patients with chronic atrial fibrillation/atrial flutter. The note with it: titrated 80 mg/day to 320 mg/day after cardioversion; placebo 44 days.
In a further data set the test system is QT interval. The following applies: 6 days of 80 mg twice or three times daily, 10 patients.
Data set [3] deals with patients with histories of sustained ventricular tachyarrhythmias. The note with it: versus imipramine, mexiletine, pirmenol, procainamide, propafenone and quinidine, 496 patients.
Data set [4] relates to high-risk post-myocardial infarction patients. The note with it: 3,121 patients with left ventricular ejection fraction of 40% or below, versus placebo.
The conditions of data set [5]: more than 99% enantiomerically pure, given in tablets.

With `CC(C)NCC(O)c1ccc(NS(C)(=O)=O)cc1` (racemic) [sotalol], the absorption result (given with food) is “approximately 80%”. Also, where the note is “human, in vivo”, the “apparent volume of distribution” value is on record as “two”, the “eliminated by renal excretion as unchanged sotalol” value is recorded as 80-90% and the protein binding result is listed as “negligible”. Besides, the bioavailability result (no significant presystemic metabolism) was “completely bioavailable”. The absorption entry (oral ingestion on an empty stomach) is given as “completely absorbed”. In data set [1] (80 mg dose level), the “patients discontinued because of adverse events” value (“patients discontinued because” for short) is recorded as 12% and the “median time to recurrence of symptomatic ECG-documented atrial fibrillation/atrial flutter” value is given as 106 days. Also, in data set [1] (120 mg dose level), the “patients discontinued because” value is 18% and the “median time to recurrence of symptomatic ECG-documented atrial fibrillation/atrial flutter” value is recorded as 229 days. In data set [1] (160 mg dose level), the “patients discontinued because” value is 29% and the “median time to recurrence of symptomatic ECG-documented atrial fibrillation/atrial flutter” value is listed as 175 days. Besides, in data set [2], the “median time to recurrence of ECG-documented atrial fibrillation” value is recorded as “more than 180 days”. In the data set on QT interval, the “partial loss of repolarization effect (pharmacodynamic tolerance)” value was “four out of the ten patients”. Also, the “preventing death from arrhythmias or any other cardiac cause” value in data set [3] is “more effective than the other agents”.
With `CC(C)NC[C@@H](O)c1ccc(NS(C)(=O)=O)cc1` [d-sotalol], the mortality entry in data set [4] was “increased mortality compared with placebo”. The “effect on heart rate and blood pressure” value in data set [5] was “decreased resting and exercise heart rate without altering blood pressure”.
